{"source": "patent US9301999B2", "about": "(priority 2009, dated 2016)", "key": {"MC/9 mast cells": {"system": "MC/9 mast cells", "type": "cell-based, murine", "set-up": "MCD10: concentration of peptide necessary to induce degranulation of 10% of mast cells: unit not given here", "settings": "for EC50: read-out: MCD50: concentration of peptide necessary to induce degranulation of 50% of mast cells"}, "anti-rPA IgG [1]": {"system": "anti-rPA IgG", "set-up": "species or system female C3H mice", "settings": "mouse, in vivo"}, "anti-WNV IgG": {"system": "anti-WNV IgG", "type": "in vivo, Female BALB/c mice", "settings": "nasal, days 0, 7 and 21, WNV antigen 1 μg + 0.25 or 1.25 nmoles peptide"}, "anti-rPA serum IgG": {"system": "anti-rPA serum IgG", "set-up": "species or system C3H/HeN female mice", "settings": "mouse, in vivo"}, "anti-rPA IgG [2]": {"system": "anti-rPA IgG", "set-up": "species or system female C3H/HeN mice", "settings": "mouse, in vivo"}, "anti-PA IgG": {"system": "anti-PA IgG", "set-up": "species or system Female C3H/HeN mice", "settings": "mouse, in vivo"}}, "note": "Several values for one entry are separate records, joined by “and”; a condition that tells them apart may be missing. Equal entries are not always repeated. Where no end group is shown, it is not given here.", "data": [{"substance": "I N L K A L A A L A K F I L [MP-12F-Ac]", "values": [{"measurement": "% Mast Cell Degranulation", "setting": "MC/9 mast cells", "result": 2.75, "unit": "%"}]}, {"substance": "I N L K A L A A L A K W I L [MP-12W-NH2]", "values": [{"measurement": "% Mast Cell Degranulation", "setting": "MC/9 mast cells", "result": "79.87% and 85.74% and 80.05%"}]}, {"substance": "I N L K A I A A L A K K I L (INLKAIAALAKKIL) [MP-6I]", "values": [{"measurement": "MCD10: concentration of peptide necessary to induce degranulation of 10% of mast cells", "setting": "MC/9 mast cells", "result": 61.14}]}, {"substance": "INLKALAALAKAIL [MP-12A, I N L K A L A A L A K A I L]", "values": [{"measurement": "MCD10: concentration of peptide necessary to induce degranulation of 10% of mast cells", "setting": "MC/9 mast cells", "result": 8.88}, {"measurement": "EC50", "setting": "MC/9 mast cells", "result": 25.3, "unit": "µM"}]}, {"substance": "I N L K A L A A L A K N I L (INLKALAALAKNIL) [MP-12N]", "values": [{"measurement": "MCD10: concentration of peptide necessary to induce degranulation of 10% of mast cells", "setting": "MC/9 mast cells", "result": 31.86}]}, {"substance": "I N L K A F A A L A K K I L (INLKAFAALAKKIL) [MP-6F]", "values": [{"measurement": "MCD10: concentration of peptide necessary to induce degranulation of 10% of mast cells", "setting": "MC/9 mast cells", "result": 58.40}]}, {"substance": "I N L K A L A A L A K E I L (INLKALAALAKEIL) [MP-12E]", "values": [{"measurement": "MCD10: concentration of peptide necessary to induce degranulation of 10% of mast cells", "setting": "MC/9 mast cells", "result": 40.32}]}, {"substance": "WQWRWWWWWWRRWW-NH2 [Duke Mast C]", "values": [{"measurement": "Tukey's Multiple Comparison Test versus CT, Significant? P < 0.05?", "setting": "anti-rPA IgG [1]", "result": "No"}, {"measurement": "Tukey's Multiple Comparison Test versus Duke Mast F NH2, Significant? P < 0.05?", "setting": "anti-rPA IgG [1]", "result": "No"}, {"measurement": "Tukey's Multiple Comparison Test versus Duke Mast I NH2, Significant? P < 0.05?", "setting": "anti-rPA IgG [1]", "result": "No"}, {"measurement": "Tukey's Multiple Comparison Test versus rPA, Significant? P < 0.05?", "setting": "anti-rPA IgG [1]", "result": "Yes"}, {"measurement": "adjuvant activity: serum anti-rPA IgG titers compared to rPA alone", "setting": "anti-rPA IgG [1]", "result": "statistically significant adjuvant activity"}, {"measurement": "% MC/9 Degranulation", "setting": "MC/9 mast cells", "result": 47.90, "unit": "%"}]}, {"substance": "I N L K A L A A L A K Q I L (INLKALAALAKQIL) [MP-12Q]", "values": [{"measurement": "MCD10: concentration of peptide necessary to induce degranulation of 10% of mast cells", "setting": "MC/9 mast cells", "result": 18.73}]}, {"substance": "INLKALAALAKALLSGGRGGINLKALAALAKALL-NH2 [MP7-2XA]", "values": [{"measurement": "% MC/9 Degranulation", "setting": "MC/9 mast cells", "result": "50.20% and 78.40%"}]}, {"substance": "I N L K A L A A L A K G I L (INLKALAALAKGIL) [MP-12G]", "values": [{"measurement": "MCD10: concentration of peptide necessary to induce degranulation of 10% of mast cells", "setting": "MC/9 mast cells", "result": 68.76}]}, {"substance": "INLKALAALAKCIL [MP-12C, I N L K A L A A L A K C I L]", "values": [{"measurement": "MCD10: concentration of peptide necessary to induce degranulation of 10% of mast cells", "setting": "MC/9 mast cells", "result": 5.33}, {"measurement": "EC50", "setting": "MC/9 mast cells", "result": 23.8, "unit": "µM"}]}, {"substance": "INLKALAALAKFIL [MP-12F, I N L K A L A A L A K F I L]", "values": [{"measurement": "MCD10: concentration of peptide necessary to induce degranulation of 10% of mast cells", "setting": "MC/9 mast cells", "result": 4.39}, {"measurement": "EC50", "setting": "MC/9 mast cells", "result": 9.22, "unit": "µM"}, {"measurement": "Anti-WNV IgG titers in sera on day 28, versus antigen alone", "setting": "anti-WNV IgG; ANOVA p<0.05", "result": "significantly greater"}, {"measurement": "anti-WNV IgG titers, difference versus mice that received MP7", "setting": "anti-WNV IgG; serum day 28", "result": "no significant difference"}]}, {"substance": "I N L K A L A A L A K R I L (INLKALAALAKRIL) [MP-12R]", "values": [{"measurement": "MCD10: concentration of peptide necessary to induce degranulation of 10% of mast cells", "setting": "MC/9 mast cells", "result": 23.29}]}, {"substance": "INLKALAALAKALLINLKALAALAKALL-NH2 [MP7-2X]", "values": [{"measurement": "% MC/9 Degranulation", "setting": "MC/9 mast cells", "result": "33.60% and 47.80%"}]}, {"substance": "cholera toxin [CT, reference compound]", "values": [{"measurement": "serum anti-PA IgG geometric means titers (GMT), adjuvant activity", "setting": "anti-rPA serum IgG", "result": "did not significantly augment"}, {"measurement": "Tukey's Multiple Comparison Test versus rPA, Significant? P < 0.05?", "setting": "anti-rPA IgG [1]", "result": "Yes"}]}, {"substance": "I N L K A L A A L A K A L L [MP7-Ac-NH2]", "values": [{"measurement": "% Mast Cell Degranulation", "setting": "MC/9 mast cells", "result": "54.46% and 47.52% and 29.89%"}]}, {"substance": "I N L K A L A A L A K A L L [MP7-OH]", "values": [{"measurement": "% Mast Cell Degranulation", "setting": "MC/9 mast cells", "result": 2.87, "unit": "%"}, {"measurement": "serum anti-rPA IgG titers, difference between the -OH and -NH2 forms", "setting": "anti-rPA IgG [2]", "result": "no significant difference"}]}, {"substance": "I N L K A L A A L A K K L L (INLKALAALAKKLL) [MP-13L]", "values": [{"measurement": "MCD10: concentration of peptide necessary to induce degranulation of 10% of mast cells", "setting": "MC/9 mast cells", "result": 22.46}]}, {"substance": "I N L K A L A A L A K F I L [MP-12F-NH2]", "values": [{"measurement": "% Mast Cell Degranulation", "setting": "MC/9 mast cells", "result": "95.24% and 87.57% and 70.01%"}]}, {"substance": "I N L K A L A A L A K A L L [MP7-Ac]", "values": [{"measurement": "% Mast Cell Degranulation", "setting": "MC/9 mast cells", "result": 0.31, "unit": "%"}]}, {"substance": "I N L K A L A A L A K I I L [MP-12I-Ac-NH2]", "values": [{"measurement": "% Mast Cell Degranulation", "setting": "MC/9 mast cells", "result": "87.97% and 67.63% and 46.09%"}]}, {"substance": "I N L K A L A A L A K L I L [MP-12L-Ac-NH2]", "values": [{"measurement": "% Mast Cell Degranulation", "setting": "MC/9 mast cells", "result": "80.35% and 76.49% and 58.57%"}]}, {"substance": "I N L K A L A A L A K K F L (INLKALAALAKKFL) [MP-13F]", "values": [{"measurement": "MCD10: concentration of peptide necessary to induce degranulation of 10% of mast cells", "setting": "MC/9 mast cells", "result": 24.37}]}, {"substance": "KLKLLLLLKLK-NH2", "values": [{"measurement": "adjuvant activity as determined by serum anti-PA IgG endpoint titers", "setting": "anti-PA IgG", "result": "did not provide adjuvant activity"}]}, {"substance": "INLKALAALAKVIL [MP-12V, I N L K A L A A L A K V I L]", "values": [{"measurement": "MCD10: concentration of peptide necessary to induce degranulation of 10% of mast cells", "setting": "MC/9 mast cells", "result": 14.87}, {"measurement": "EC50", "setting": "MC/9 mast cells", "result": 41.2, "unit": "µM"}]}, {"substance": "I N L K A L A A L A K H I L (INLKALAALAKHIL) [MP-12H]", "values": [{"measurement": "MCD10: concentration of peptide necessary to induce degranulation of 10% of mast cells", "setting": "MC/9 mast cells", "result": 23.86}]}]}
